One assay concerns the target T1, human GST-DYRK1A (Homo sapiens, UniProt Q13627).
T1 construct: purified human GST-DYRK1A (full length, Thermo Scientifics) enzyme; purchased Thermo Scientifics
As to the kind of experiment: GST-DYRK1A enzyme inhibition, ADP-Glo kinase assay. The format is biochemical. The conditions noted are these: ATP 10 μM, GST-DYRK1A full length, read-out: DYRK1 IC50. The protocol:
(§1) To evaluate an inhibitory activity of the compound according to the present invention against LRRK2, LRRK2 (G2019S), DYRK1, CLK1, and TTK kinases, experiments were performed as follows.
(§2) Each of the Example compounds was reacted with a purified human GST-DYRK1A (full length, Thermo Scientifics) enzyme to evaluate an ability to inhibit an enzyme using a method as described below. A composition of 40 mM Tris-HCl (pH 7.4), 20 mM MgCl2, 0.5 mg/mL BSA, and 50 μM DTT was used as a reaction buffer, and all reactions of test substances were performed in the reaction buffer. In the test, purified ATP (10 μM) and a specific substrate solution were reacted with a human GST-DYRK1A (full length, 10 ng) enzyme at 25° C. for an hour, and the enzyme activities were then determined using an in vitro ADP-Glo™ kinase assay (Promega). An enzyme-activity reaction solution, an ADP-Glo reaction solution, and an enzyme-ability detection solution were reacted at a ratio of 2:2:1 to measure a degree of inhibition of the enzyme activity with luminescence. The degree of inhibition of the enzyme activity according to the treatment concentration of each of the compounds was calculated based on the fluorescence of the enzyme activity of the solvent control which was not treated with the compound. In this case, the concentration of each of the compounds inhibiting 50% of the enzyme activity was determined to be an IC50 (nM) value, and the IC50 (nM) value of each of the compounds was determined from 3 sets of data, and calculated using Prism (Version 5.01; GraphPad) software.

For a further assay, the target named is T2, human GST-CLK1 (Homo sapiens, UniProt P49759).
T2 construct: purified human GST-CLK1 (129-end, SignalChem) enzyme; purchased SignalChem
T2 sequence (P49759 129-484 limits assumed): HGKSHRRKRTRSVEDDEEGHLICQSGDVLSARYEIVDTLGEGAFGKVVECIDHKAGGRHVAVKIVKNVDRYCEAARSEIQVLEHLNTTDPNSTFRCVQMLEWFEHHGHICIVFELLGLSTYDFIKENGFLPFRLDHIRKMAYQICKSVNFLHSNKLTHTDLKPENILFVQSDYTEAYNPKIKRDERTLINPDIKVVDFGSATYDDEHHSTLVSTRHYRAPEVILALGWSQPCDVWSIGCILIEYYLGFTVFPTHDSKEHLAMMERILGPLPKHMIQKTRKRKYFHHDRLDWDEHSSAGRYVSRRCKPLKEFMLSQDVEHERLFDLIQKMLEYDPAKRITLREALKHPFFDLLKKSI
As to the kind of experiment: GST-CLK1 enzyme inhibition, ADP-Glo kinase assay. The format is biochemical. Conditions: ATP 10 μM, GST-CLK1 129-end. The protocol:
as §1
as §2, with “GST-CLK1 (129-end, SignalChem)” for “GST-DYRK1A (full length, Thermo Scientifics)”, “GST-CLK1 (129-end, 3” for “GST-DYRK1A (full length, 10”, “value. The” for “value, and the”

SMILES strings stand for the structures.

With `COc1cc(P(C)(C)=O)ccc1Nc1nc(NC2CCCC2)c2c(C#N)c[nH]c2n1` [Example 269, 4-(cyclopentylamino)-2-((4-(dimethylphosphoryl)-2-methoxyphenyl)amino)-7H-pyrrolo[2,3-d]pyrimidine-5-carbonitrile], the IC50 lay in the range of 0.301 to 1 µM at human GST-DYRK1A and 0.101 to 0.3 µM against human GST-CLK1.

As for `COc1cc(P(C)(C)=O)ccc1Nc1nc(NCC2CCCC2)c2c(C#N)c[nH]c2n1` [Example 274, 4-((cyclopentylmethyl)amino)-2-((4-(dimethylphosphoryl)-2-methoxyphenyl)amino)-7H-pyrrolo[2,3-d]pyrimidine-5-carbonitrile], the IC50 at human GST-DYRK1A and against human GST-CLK1 was 0.301 to 1 µM each time.

As to `COc1cc(S(C)(=O)=O)ccc1Nc1nc(NCC2CCC2)c2c(C(F)(F)F)c[nH]c2n1` [Example 198, N^4-(cyclobutylmethyl)-N^2-(2-methoxy-4-(methylsulfonyl)phenyl)-5-(trifluoromethyl)-7H-pyrrolo[2,3-d]pyrimidine-2,4-diamine], the IC50 on human GST-DYRK1A and against human GST-CLK1 was 0.301 to 1 µM each time.

In the case of `N#Cc1c[nH]c2nc(Nc3ccc(C(=O)N4CCOCC4)c4c3OCCO4)nc(NC3CCOCC3)c12` [Example 129, 2-((8-(morpholine-4-carbonyl)-2,3-dihydrobenzo[b][1,4]dioxin-5-yl)amino)-4-((tetrahydro-2H-pyran-4-yl)amino)-7H-pyrrolo[2,3-d]pyrimidine-5-carbonitrile], the IC50 at human GST-DYRK1A and on human GST-CLK1 was 0.301 to 1 µM throughout.

In the case of `COc1cc(P(C)(C)=O)ccc1Nc1nc(NC(C)C)c2c(C(F)(F)F)c[nH]c2n1` [Example 371, (4-((4-(isopropylamino)-5-(trifluoromethyl)-7H-pyrrolo[2,3-d]pyrimidin-2-yl)amino)-3-methoxyphenyl) dimethyl phosphine oxide], the IC50 on human GST-DYRK1A lay in the range of 0.301 to 1 µM; against human GST-CLK1, 0.101 to 0.3 µM.

For the compound `COc1cc(P(C)(C)=O)ccc1Nc1nc(NC2CCOCC2)c2c(C#N)c[nH]c2n1` [Example 272, 2-((4-(dimethylphosphoryl)-2-methoxyphenyl)amino)-4-((tetrahydro-2H-pyran-4-yl)amino)-7H-pyrrolo[2,3-d]pyrimidine-5-carbonitrile], the IC50 at human GST-DYRK1A and against human GST-CLK1 was 0.301 to 1 µM throughout.

With `COc1cc(P2(=O)CCN(C3CCOCC3)CC2)ccc1Nc1nc(NC2CCCCC2)c2c(C#N)c[nH]c2n1` [Example 324, 4-(cyclo-hexylamino)-2-((2-methoxy-4-(4-oxido-1-(tetrahydro-2H-pyran-4-yl)-1,4-azaphosphinan-4-yl)phenyl)amino)-7H-pyrrolo[2,3-d]pyrimidine-5-carbonitrile], the IC50 was 0.301 to 1 µM on human GST-DYRK1A and less than 0.1 µM against human GST-CLK1.

In the case of `COc1cc(P2(=O)CCN(C3COC3)CC2)ccc1Nc1nc(NC2COC2)c2c(C#N)c[nH]c2n1` [Example 311, 2-((2-methoxy-4-(1-(oxetan-3-yl)-4-oxido-1,4-azaphosphinan-4-yl)phenyl)amino)-4-(oxetan-3-ylamino)-7H-pyrrolo[2,3-d]pyrimidine-5-carbonitrile], the half-maximal inhibitory concentration (IC50) at human GST-DYRK1A and on human GST-CLK1 was 0.301 to 1 µM each time.

Regarding `CC(C)Nc1nc(Nc2ccc(C(=O)N3CC(CO)(CO)C3)c3c2OCCO3)nc2[nH]cc(C#N)c12` [Example 329, 2-((8-(3,3-bis (hydroxymethyl)azetidine-1-carbonyl)-2,3-dihydrobenzo[b] [1,4]dioxin-5-yl)amino)-4-(isopropylamino)-7H-pyrrolo[2,3-d]pyrimidine-5-carbonitrile], the half-inhibitory concentration (IC50) on human GST-DYRK1A was 0.301 to 1 µM; against human GST-CLK1, less than 0.1 µM.

Consider `N#Cc1c[nH]c2nc(Nc3ccc(C(=O)N4CCOCC4)c4c3OCC4)nc(NCC3CCCC3)c12` [Example 342, 4-((cyclo-pentylmeth-yl)amino)-2-((4-(morpholine-4-carbonyl)-2,3-dihydrobenzo-furan-7-yl)amino)-7H-pyrrolo[2,3-d]pyrimidine-5-carbonitrile], for which the concentration for half-maximal inhibition (IC50) at human GST-DYRK1A and against human GST-CLK1 was 0.301 to 1 µM each time.

Turning to `CCCNc1nc(Nc2ccc(C(=O)N3CC(CO)(CO)C3)c3c2OCCO3)nc2[nH]cc(C#N)c12` [Example 327, 2-((8-(3,3-bis(hydroxy-methyl)azetidine-1-carbonyl)-2,3-dihydrobenzo[b] [1,4]dioxin-5-yl)amino)-4-(propylamino)-7H-pyrrolo[2,3-d]pyrimidine-5-carbonitrile], the IC50 was 0.301 to 1 µM at human GST-DYRK1A and less than 0.1 µM at human GST-CLK1.

Regarding `CC(C)CNc1nc(Nc2ccc(C(=O)N3CCC(N4CCOCC4)CC3)c3c2OCC3)nc2[nH]cc(C#N)c12` [Example 351, 4-(isobutyl-amino)-2-((4-(4-morpholino-piperidine-1-carbonyl)-2,3-dihydro-benzofuran-7-yl)amino)-7H-pyrrolo[2,3-d]pyrimidine-5-carbonitrile], the IC50 was 0.301 to 1 µM on human GST-DYRK1A and less than 0.1 µM at human GST-CLK1.

Consider `COCCNc1nc(Nc2ccc(P3(=O)CCN(C4COC4)CC3)cc2OC)nc2[nH]cc(C#N)c12` [Example 312, 2-((2-methoxy-4-(1-(oxetan-3-yl)-4-oxido-1,4-azaphosphinan-4-yl)phenyl)amino)-4-((2-methoxyethyl)amino)-7H-pyrrolo[2,3-d]pyrimidine-5-carbonitrile], for which the IC50 at human GST-DYRK1A is 0.101 to 0.3 µM; against human GST-CLK1, less than 0.1 µM.

As to `COc1cc(P(C)(C)=O)ccc1Nc1nc(NC(C)C)c2c(C#N)c[nH]c2n1` [Example 114, 2-((4-(dimethylphosphoryl)-2-methoxyphenyl)amino)-4-(isopropylamino)-7H-pyrrolo[2,3-d]pyrimidine-5-carbonitrile], the IC50 at human GST-DYRK1A and against human GST-CLK1 was 0.301 to 1 µM in each case.

`CC(C)Nc1nc(Nc2ccc(C(=O)N3CCC(N4CCOCC4)CC3)c3c2OCCO3)nc2[nH]cc(C(F)(F)F)c12` [Example 365, (8-((4-(isopropylamino)-5-(trifluoromethyl)-7H-pyrrolo[2,3-d]pyrimidin-2-yl)amino)-2,3-dihydrobenzo[b] [1,4]dioxin-5-yl) (4-morpholino-piperidin-1-yl)methanone]: the IC50 on human GST-DYRK1A and on human GST-CLK1 was less than 0.1 µM in each case.

Regarding `N#Cc1c[nH]c2nc(Nc3ccc(C(=O)N4CCN(C5COC5)CC4)c4c3OCCO4)nc(NCC3CCC3)c12` [Example 318, 4-((cyclo-butylmethyl)amino)-2-((8-(4-(oxetan-3-yl)piperazine-1-carbonyl)-2,3-dihydrobenzo[b] [1,4]dioxin-5-yl)amino)-7H-pyrrolo[2,3-d]pyrimidine-5-carbonitrile], the IC50 at human GST-DYRK1A lay within 0.301 to 1 µM; against human GST-CLK1 it was 0.101 to 0.3 µM.

For `COc1cc(S(C)(=O)=O)ccc1Nc1nc(N[C@H]2CCOC2)c2c(C#N)c[nH]c2n1` [Example 108, (S)-2-((2-methoxy-4-(methylsulfonyl)phenyl)amino)-4-((tetrahydrofuran-3-yl)amino)-7H-pyrrolo[2,3-d]pyrimidine-5-carbonitrile], the results for the IC50 on human GST-DYRK1A and on human GST-CLK1 were 0.301 to 1 µM and less than 0.1 µM, respectively.

Regarding `CC[C@H](C)Nc1nc(Nc2ccc(S(C)(=O)=O)cc2OC)nc2[nH]cc(C#N)c12` [Example 102, (S)-4-(sec-butylamino)-2-((2-methoxy-4-(methylsulfonyl)phenyl)amino)-7H-pyrrolo[2,3-d]pyrimidine-5-carbonitrile], the IC50 at human GST-DYRK1A and at human GST-CLK1 was 0.301 to 1 µM each time.

Regarding `CC[C@H](C)Nc1nc(Nc2ccc(S(C)(=O)=O)cc2OC)nc2[nH]ccc12` [Example 18, (S)-N^4-(sec-butyl)-N^2-(2-methoxy-4-(4-methylsulfonyl)phenyl)-7H-pyrrolo[2,3-d]pyrimidine-2,4-diamine], the IC50 at human GST-DYRK1A and against human GST-CLK1 was 0.301 to 1 µM throughout.

Regarding `CCCNc1nc(Nc2ccc(C(=O)N3CCOCC3)c3c2OCC3)nc2[nH]cc(C#N)c12` [Example 348, 2-((4-(morpholine-4-carbonyl)-2,3-dihydrobenzo-furan-7-yl)amino)-4-(propylamino)-7H-pyrrolo[2,3-d]pyrimidine-5-carbonitrile], the results for the IC50 on human GST-DYRK1A and at human GST-CLK1 were 0.301 to 1 µM and less than 0.1 µM, respectively.

For the origin of these results see patent US20230066011A1, “PYRROLOPYRIMIDINE DERIVATIVE, AND PHARMACEUTICAL COMPOSITION FOR PREVENTING OR TREATING PROTEIN KINASE-RELATED DISEASE COMPRISING SAME AS ACTIVE INGREDIENT” (VORONOI CO., LTD., priority 2019, published 2023).
